According to ChEMBL document CHEMBL1132674, “Design, synthesis and DNA-cleavage of Gly-Gly-His-naphthalene diimide conjugates” (Bioorg Med Chem Lett, 1999):

Experiment: Binding constant of the compound

CN(CCCN)CCCN1C(=O)c2ccc3c4c(ccc(c24)C1=O)C(=O)N(CCCN(C)CCCNC(=O)C(Cc1c[nH]cn1)NC(=O)CNC(=O)CN)C3=O (configuration not stated)
Binding constant: 100000 M⁻¹

CN(CCCNC(=O)C(Cc1c[nH]cn1)NC(=O)CNC(=O)CN)CCCN1C(=O)c2ccc3c4c(ccc(c24)C1=O)C(=O)N(CCCN(C)CCCNC(=O)C(Cc1c[nH]cn1)NC(=O)CNC(=O)CN)C3=O (configuration not stated)
Binding constant: 100000 M⁻¹
